Legend:
Assay in all cases: relative viability (nuclei count vs DMSO), 5 days (fraction); higher = more cells survive
[1] = compound: C1CNCCC1C2=CC(=NN2)C3=CC=NC=C3 + CS(=O)(=O)CCNCc1ccc(-c2ccc3ncnc(Nc4ccc(OCc5cccc(F)c5)c(Cl)c4)c3c2)o1 [Lapatinib] (partner 2 µM)
How it was run: (§1)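 Relative viability equals treated-well nuclei counts divided by vehicle-well nuclei counts. Counts came from 4× images of lung cancer cell lines grown in 1536-well plates for 5 days after pin-tool dosing on the day after seeding. Dosing used one drug alone or a fixed anchor-drug dose plus five library-drug doses (not always all listed) in √10 steps, and values are medians of duplicate plates.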

[2] = compound: C1CNCCC1C2=CC(=NN2)C3=CC=NC=C3 + NC(=O)Nc1cc(-c2cccc(F)c2)sc1C(=O)N[C@H]1CCCNC1 [AZD7762] (partner 0.2 µM)
How it was run: as §1

Tanzisertib + Trametinib = compound: O[C@H]1CC[C@H](Nc2ncc3nc(Nc4c(F)cc(F)cc4F)n([C@H]4CCOC4)c3n2)CC1 [Tanzisertib] + CC(=O)Nc1cccc(-n2c(=O)n(C3CC3)c(=O)c3c(Nc4ccc(I)cc4F)n(C)c(=O)c(C)c32)c1 [Trametinib] (partner 0.02 µM)
How it was run: as §1

Tanzisertib + Olaparib = compound: O[C@H]1CC[C@H](Nc2ncc3nc(Nc4c(F)cc(F)cc4F)n([C@H]4CCOC4)c3n2)CC1 [Tanzisertib] + O=C(c1cc(Cc2n[nH]c(=O)c3ccccc23)ccc1F)N1CCN(C(=O)C2CC2)CC1 [Olaparib] (partner 8 µM)
How it was run: as §1

Cell Line	relative viability ([1]; first compound 0.08 µM)	relative viability ([1]; first compound 0.8 µM)	relative viability ([1]; first compound 2.53 µM)	relative viability ([1]; first compound 8 µM)	relative viability ([2]; first compound 0.08 µM)	relative viability ([2]; first compound 0.8 µM)	relative viability ([2]; first compound 2.53 µM)	relative viability ([2]; first compound 8 µM)	relative viability (Tanzisertib + Trametinib; first compound 0.08 µM)	relative viability (Tanzisertib + Trametinib; first compound 0.253 µM)	relative viability (Tanzisertib + Trametinib; first compound 0.8 µM)	relative viability (Tanzisertib + Trametinib; first compound 2.53 µM)	relative viability (Tanzisertib + Trametinib; first compound 8 µM)	relative viability (Tanzisertib + Olaparib; first compound 0.08 µM)	relative viability (Tanzisertib + Olaparib; first compound 0.253 µM)	relative viability (Tanzisertib + Olaparib; first compound 0.8 µM)	relative viability (Tanzisertib + Olaparib; first compound 2.53 µM)	relative viability (Tanzisertib + Olaparib; first compound 8 µM)
NCI-H1734	0.856	1.07	1.15	1.07	0.445	0.59	0.652	0.584	0.652	0.669	0.709	0.681	0.721	0.66	0.626	0.604	0.671	0.687
NCI-H1755	1.03	0.973	1.07	1	0.473	0.448	0.419	0.561	0.791	0.831	0.779	0.697	0.719	0.906	0.868	0.889	0.855	0.865
NCI-H1792	0.893	0.851	0.913	0.788	0.616	0.675	0.632	0.717	0.501	0.455	0.35	0.413	0.244	0.813	0.572	0.498	0.345	0.436
NCI-H1793	0.581	0.725	0.644	0.666	0.369		0.615	0.61	0.65	0.419	0.475	0.398	0.542	0.876	0.807	0.873	0.77	0.592
NCI-H1915	0.964	1.09	1.02	0.946	0.704	0.745	0.722	0.704	0.31	0.306	0.296	0.268	0.258	0.29	0.271	0.244	0.245	0.25
NCI-H1944	0.76	0.775	0.819	0.801	0.442	0.467	0.477	0.503	0.455	0.422	0.435	0.343	0.403	0.462	0.412	0.377	0.44	0.385
NCI-H1975	0.905	1.08	1.05	0.83	0.758	0.599	0.742	0.679	0.396	0.422	0.345	0.349	0.341	0.898	0.836	0.807	0.818	0.752
NCI-H1993	0.764	0.881	0.837	0.778	0.874	0.631	0.858	0.681	0.638	0.428	0.55	0.499	0.522	0.985	0.928	1.17	1.04	0.766
NCI-H2085	0.877	0.51	0.819	0.772	0.999		1.03	1		0.604	0.436	0.556	0.491		0.763	0.745	0.803	0.76
NCI-H2087	1.25	1.26	0.944	0.948	1.18	1.46	1.33	1.22	0.256	0.171	0.21	0.181	0.182	0.552	0.576	0.501	0.52	0.588
NCI-H2126	0.738	0.752	0.812	0.741	1.01	1.04	1.01	1.01	0.56	0.597	0.611	0.546	0.59	0.913	0.919	0.987	0.873	0.938
NCI-H2170	0.247	0.28	0.269	0.291	0.746	0.909	0.949	0.897	0.989	0.965	0.927	0.926	0.874	0.669	0.569	0.601	0.604	0.53
NCI-H2347	0.956	0.735	0.977	0.996	0.763	0.494	0.745	0.76	0.256	0.255	0.261	0.259	0.29	0.628	0.626	0.593	0.677	0.766
NCI-H2405	1.12	1.01	1.12	1.16	0.858	0.717	0.709	0.585	0.766	0.559	0.565	0.52	0.44	0.924	0.902	0.869	1.03	0.869
NCI-H3122	0.972	1.03	1.04	1.04	0.948	1.06	0.966	1.01	0.262	0.201	0.273	0.245	0.237	0.708	0.587	0.634	0.583	0.62
PC-3 [JPC-3]	0.426	0.446	0.499	0.471	0.879	0.817	0.689	0.936	0.715	0.759	0.763	0.774	0.612	1.18	1.21	1.19	1.18	1.04
PC-14	0.348	0.304	0.318	0.38	0.363	0.383	0.237	0.348	0.886	0.673	0.805	0.666	0.295	0.343	0.228	0.402	0.271	0.246
RERF-LC-KJ	0.784	0.835	0.843	0.85	0.905	1.04	1.11	1.01	0.863	0.919	0.959	0.782	0.834	0.997	0.925	0.942	0.94	0.912

Reference: the supplement of paper PMC10307832
